Measured values as given in PubChem BioAssay AID248 (DTP/NCI, 2004).
Inconclusive results and toxic doses are left out. Rule as the data show it: active = T/C of 150% or more; inactive = T/C below 125%.

Tested on: L1210 leukemia ip in BDF1 mice, survival T/C
Experiment: NCI In Vivo Anticancer Drug Screen. Data for tumor model L1210 Leukemia (intraperitoneal) in B6D2F1 (BDF1) mice
Conditions: endpoint: mean survival time, higher = longer survival
Method in brief: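 Each compound was tested against a transplantable tumor grown in mice. The endpoint was survival, with treated animals benchmarked against vehicle controls as a simple ratio.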

[1] = dose: 75.0 mg/kg/injection, schedule: Q01DX009 (ip), vehicle: Klucel (hydroxypropylcellulose) (HPC)
[2] = dose: 150.0 mg/kg/injection, schedule: Q01DX009 (ip), vehicle: Klucel (hydroxypropylcellulose) (HPC)
[3] = dose: 300.0 mg/kg/injection, schedule: Q01DX009 (ip), vehicle: Klucel (hydroxypropylcellulose) (HPC)
[4] = dose: 100.0 mg/kg/injection, schedule: Q01DX009 (ip), vehicle: Klucel (hydroxypropylcellulose) (HPC)
[5] = dose: 100.0 mg/kg/injection, schedule: Q04DX002 (ip), vehicle: Klucel (hydroxypropylcellulose) (HPC)
[6] = dose: 200.0 mg/kg/injection, schedule: Q04DX002 (ip), vehicle: Klucel (hydroxypropylcellulose) (HPC)
[7] = dose: 400.0 mg/kg/injection, schedule: Q04DX002 (ip), vehicle: Klucel (hydroxypropylcellulose) (HPC)
[8] = dose: 100.0 mg/kg/injection, schedule: Q04DX003 (ip), vehicle: saline with Tween-80
[9] = dose: 200.0 mg/kg/injection, schedule: Q04DX003 (ip), vehicle: saline with Tween-80
[10] = dose: 400.0 mg/kg/injection, schedule: Q04DX003 (ip), vehicle: saline with Tween-80
[11] = dose: 100.0 mg/kg/injection, schedule: Q01DX001 (ip), vehicle: saline
[12] = dose: 200.0 mg/kg/injection, schedule: Q01DX001 (ip), vehicle: saline
[13] = dose: 400.0 mg/kg/injection, schedule: Q01DX001 (ip), vehicle: saline
[14] = dose: 100.0 mg/kg/injection, schedule: Q04DX003 (ip), vehicle: Klucel (hydroxypropylcellulose) (HPC)
[15] = dose: 200.0 mg/kg/injection, schedule: Q04DX003 (ip), vehicle: Klucel (hydroxypropylcellulose) (HPC)
[16] = dose: 400.0 mg/kg/injection, schedule: Q04DX003 (ip), vehicle: Klucel (hydroxypropylcellulose) (HPC)
[17] = dose: 200.0 mg/kg/injection, schedule: Q01DX009 (ip), vehicle: Klucel (hydroxypropylcellulose) (HPC)
[18] = dose: 400.0 mg/kg/injection, schedule: Q01DX009 (ip), vehicle: Klucel (hydroxypropylcellulose) (HPC)

Measured: T/C

COc1ccc(C=Nc2ccnc3cc(OC)c(OC)cc23)cc1OC
inactive: dose: 100.0 mg/kg/injection, schedule: Q01DX001 (ip), vehicle: saline with Tween-80 93 % of control | dose: 200.0 mg/kg/injection, schedule: Q01DX001 (ip), vehicle: saline with Tween-80 104 % of control | dose: 400.0 mg/kg/injection, schedule: Q01DX001 (ip), vehicle: saline with Tween-80 102 % of control

CC(C)(Br)CNC(=O)c1cccc([N+](=O)[O-])c1
inactive: [1] 103 % of control | dose: 75.0 mg/kg/injection, schedule: Q04DX003 (ip), vehicle: Klucel (hydroxypropylcellulose) (HPC) 95 % of control | [2] 101 % of control | dose: 150.0 mg/kg/injection, schedule: Q04DX003 (ip), vehicle: Klucel (hydroxypropylcellulose) (HPC) 97 % of control | [3] 86 % of control | dose: 300.0 mg/kg/injection, schedule: Q04DX003 (ip), vehicle: Klucel (hydroxypropylcellulose) (HPC) 92 % of control

NC(=O)c1ccccc1OC(=O)Nc1ccccc1
inactive: dose: 50.0 mg/kg/injection, schedule: Q01DX009 (ip), vehicle: Klucel (hydroxypropylcellulose) (HPC) 103 % of control | [4] 101 % of control | [5] 89 % of control | [6] 99 % of control

CC(C)OC(=S)SC(C(=O)c1ccccc1)c1ccccc1 (stereo not drawn)
inactive: [5] 91 % of control | [6] 91 % of control | [7] 91 % of control

Cc1ccc(S(=O)(=O)N/N=C/c2ccc(C)s2)cc1
inactive: [8] 95 % of control | [9] 91 % of control | [10] 87 % of control

CCOC(=O)Nc1cc(NC(C)CCCN(CC)CC)c2ncc(-c3ccc(Cl)c(Cl)c3)nc2n1 (stereo not drawn) (tested in a mixture with another compound)
inactive: dose: 6.25 mg/kg/injection, schedule: Q01DX001 (ip), vehicle: saline 99 % of control | dose: 6.25 mg/kg/injection, schedule: Q01DX009 (ip), vehicle: saline 91 % of control | dose: 12.5 mg/kg/injection, schedule: Q01DX001 (ip), vehicle: saline 101 % of control | dose: 12.5 mg/kg/injection, schedule: Q01DX009 (ip), vehicle: saline 95 % of control | dose: 25.0 mg/kg/injection, schedule: Q01DX001 (ip), vehicle: saline 89 % of control | dose: 25.0 mg/kg/injection, schedule: Q01DX009 (ip), vehicle: saline 106 % of control | [11] 103 % of control

C/C(=N/OC(=O)N(C)C)c1ccc([N+](=O)[O-])cc1
inactive: [11] 104 % of control | [12] 104 % of control | [13] 104 % of control

O=C(NCCCl)C(Cl)(Cl)Cl
inactive: [14] 98 % of control | [15] 97 % of control | [16] 106 % of control

CC(C)OC(C)(C=O)OC(=O)Nc1cccc2ccccc12 (stereo not drawn)
inactive: dose: 100.0 mg/kg/injection, schedule: Q04DX002 (sc), vehicle: olive oil, sesame oil, peanut oil 100 % of control | dose: 200.0 mg/kg/injection, schedule: Q04DX002 (sc), vehicle: olive oil, sesame oil, peanut oil 95 % of control | dose: 400.0 mg/kg/injection, schedule: Q04DX002 (sc), vehicle: olive oil, sesame oil, peanut oil 103 % of control

Cc1c(Cl)cccc1NC(=O)Sc1ccc(C(C)(C)C)cc1
inactive: [4] 100 % of control | [17] 90 % of control | [18] 98 % of control

CCC(=O)c1ccc(NC(N)=S)cc1
inactive: dose: 20.0 mg/kg/injection, schedule: Q01DX005 (ip), vehicle: saline with Tween-80 94 % of control | dose: 40.0 mg/kg/injection, schedule: Q01DX005 (ip), vehicle: saline with Tween-80 95 % of control | dose: 80.0 mg/kg/injection, schedule: Q01DX005 (ip), vehicle: saline with Tween-80 94 % of control | dose: 160.0 mg/kg/injection, schedule: Q01DX005 (ip), vehicle: saline with Tween-80 101 % of control

CCCCC(=O)N/N=C/c1ccc(OC)c(OC)c1
inactive: [11] 100 % of control | [12] 94 % of control | [13] 91 % of control

COC1CC(OC(=O)c2ccc(C)cc2)C(COC(=O)c2ccc(C)cc2)O1 (stereo not drawn)
inactive: dose: 100.0 mg/kg/injection, schedule: Q04DX003 (ip), vehicle: saline 98 % of control | dose: 200.0 mg/kg/injection, schedule: Q04DX003 (ip), vehicle: saline 102 % of control | dose: 400.0 mg/kg/injection, schedule: Q04DX003 (ip), vehicle: saline 98 % of control

O=S(=O)(O)c1ccc(-c2nc3ccccc3[nH]2)cc1
inactive: dose: 50.0 mg/kg/injection, schedule: Q01DX001 (ip), vehicle: saline 104 % of control | [11] 98 % of control | [4] 101 % of control | [14] 95 % of control | [12] 93 % of control | [17] 96 % of control | [15] 103 % of control | [13] 95 % of control | [18] 96 % of control | [16] 98 % of control

O=C1c2ccccc2C(=O)N1Cc1ccccc1
inactive: [8] 92 % of control | [9] 100 % of control | [10] 96 % of control

CNCCCCOC
inactive: dose: 100.0 mg/kg/injection, schedule: Q04DX002 (ip), vehicle: saline 117 % of control | dose: 200.0 mg/kg/injection, schedule: Q04DX002 (ip), vehicle: saline 104 % of control

NC(N)=N/N=C\c1ccc2c(c1)OCO2
inactive: dose: 15.0 mg/kg/injection, schedule: Q01DX Z (ip), vehicle: saline 98 % of control | dose: 30.0 mg/kg/injection, schedule: Q01DX Z (ip), vehicle: saline 88 % of control | dose: 30.0 mg/kg/injection, schedule: Q01DX Z (oral), vehicle: saline 92 % of control | dose: 60.0 mg/kg/injection, schedule: Q01DX Z (ip), vehicle: saline 92 % of control | dose: 60.0 mg/kg/injection, schedule: Q01DX Z (oral), vehicle: saline 94 % of control | dose: 120.0 mg/kg/injection, schedule: Q01DX Z (oral), vehicle: saline 97 % of control

CC(=O)NC(C)c1ccccc1 (stereo not drawn)
inactive: dose: 50.0 mg/kg/injection, schedule: Q04DX002 (ip), vehicle: Klucel (hydroxypropylcellulose) (HPC) 108 % of control | [1] 96 % of control | [5] 108 % of control | [2] 89 % of control | [6] 108 % of control | [3] 100 % of control | [7] 111 % of control

Oc1cccc2ccc3ccc4ccccc4c3c12
inactive: dose: 87.5 mg/kg/injection, schedule: Q04DX003 (ip), vehicle: Klucel (hydroxypropylcellulose) (HPC) 93 % of control | dose: 175.0 mg/kg/injection, schedule: Q04DX003 (ip), vehicle: Klucel (hydroxypropylcellulose) (HPC) 93 % of control | dose: 350.0 mg/kg/injection, schedule: Q04DX003 (ip), vehicle: Klucel (hydroxypropylcellulose) (HPC) 95 % of control

NC(=S)NN=C1CCSCC1
inactive: dose: 8.4 mg/kg/injection, schedule: Q01DX Z (ip), vehicle: methylcellulose (MC) 96 % of control | dose: 14.0 mg/kg/injection, schedule: Q01DX Z (ip), vehicle: methylcellulose (MC) 92 % of control | dose: 23.0 mg/kg/injection, schedule: Q01DX Z (ip), vehicle: methylcellulose (MC) 98 % of control | dose: 39.0 mg/kg/injection, schedule: Q01DX Z (ip), vehicle: methylcellulose (MC) 98 % of control
